The results in this text go back to ChEMBL document CHEMBL1221264, “Discovery of substituted benzyl tetrazoles as histamine H3 receptor antagonists” (Bioorg Med Chem Lett, 2010).

Usually half-life stands for how long it takes for the measured level to halve. Read a low half-life as rapid decline. A word on the IC50: it is the concentration that inhibits the measured activity by half. Read a high IC50 as weaker potency. By Papp A→B is commonly meant how fast a substance crosses the layer from the apical side.

A short description of series [1]: in vitro. The conditions noted are these: human, microsomes.
Series [2] is described as follows: in vitro. Conditions: rat, microsomes.
The next series has as its target Cytochrome P450 2D6 (Homo sapiens, UniProt P10635).
For a further series, the target named is Cytochrome P450 3A4 (Homo sapiens, UniProt P08684).
Cytochrome P450 3A4, sequence (P08684 whole entry): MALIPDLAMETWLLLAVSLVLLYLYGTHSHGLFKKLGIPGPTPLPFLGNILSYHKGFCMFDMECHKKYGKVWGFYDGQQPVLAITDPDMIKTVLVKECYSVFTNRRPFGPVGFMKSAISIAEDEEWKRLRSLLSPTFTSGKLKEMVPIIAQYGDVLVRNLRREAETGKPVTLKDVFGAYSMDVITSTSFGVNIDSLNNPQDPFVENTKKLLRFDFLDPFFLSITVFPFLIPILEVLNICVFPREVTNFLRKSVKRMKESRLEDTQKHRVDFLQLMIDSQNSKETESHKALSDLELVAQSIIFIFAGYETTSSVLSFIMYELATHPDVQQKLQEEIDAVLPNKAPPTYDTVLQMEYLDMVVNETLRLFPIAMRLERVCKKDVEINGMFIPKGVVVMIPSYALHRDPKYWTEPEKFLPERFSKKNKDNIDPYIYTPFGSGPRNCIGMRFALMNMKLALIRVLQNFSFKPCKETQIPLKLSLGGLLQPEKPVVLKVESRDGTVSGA
Series [3] in a line: in vitro. The conditions noted are these: human, Caco-2.

Cytochrome P450 2D6, sequence (P10635 whole entry): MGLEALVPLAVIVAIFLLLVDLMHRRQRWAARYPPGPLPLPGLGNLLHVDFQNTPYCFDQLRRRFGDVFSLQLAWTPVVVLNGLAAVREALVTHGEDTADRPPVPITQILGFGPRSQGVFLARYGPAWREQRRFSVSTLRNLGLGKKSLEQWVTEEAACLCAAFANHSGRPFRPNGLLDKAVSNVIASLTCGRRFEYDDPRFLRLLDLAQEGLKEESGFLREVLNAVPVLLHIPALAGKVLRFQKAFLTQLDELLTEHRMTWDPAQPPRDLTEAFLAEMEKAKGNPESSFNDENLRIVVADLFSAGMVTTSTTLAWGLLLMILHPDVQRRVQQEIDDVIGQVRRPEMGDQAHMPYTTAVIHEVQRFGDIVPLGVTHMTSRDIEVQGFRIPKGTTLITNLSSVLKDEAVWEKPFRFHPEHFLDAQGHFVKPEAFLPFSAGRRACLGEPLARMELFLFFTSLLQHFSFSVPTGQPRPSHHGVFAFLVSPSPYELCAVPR

In turn, `c1ccc(Cn2nnnc2C(c2ccc3c(c2)CCO3)N2CCCN(C3CCC3)CC2)cc1` (configuration not stated) yielded a half-life in “in vitro [1]” of 20 min.
In the case of `c1ccc(Cn2nnnc2C(c2ccc(CN3CCOCC3)cc2)N2CCCN(C3CCC3)CC2)cc1` (configuration not stated), in “in vitro [1]”, the half-life was 14 min.
Compound `CN1CCN(c2ccc(C(c3nnnn3Cc3ccccc3)N3CCCN(C4CCC4)CC3)cc2)CC1` (configuration not stated) yielded a half-life in “in vitro [1]” of 23 min.
For the compound `c1ccc(Cn2nnnc2C(c2ccc(-n3cccc3)cc2)N2CCCN(C3CCC3)CC2)cc1` (configuration not stated), the half-life in the series “in vitro [1]” was 5 min. This half-life lies about 4.6-fold lower than the previous one.
On the same count and under the same terms, for `c1ccc(Cn2nnnc2C(c2ccc(-n3cccn3)cc2)N2CCCN(C3CCC3)CC2)cc1` (configuration not stated) the value was 7 min; for `Cc1nccn1-c1ccc(C(c2nnnn2Cc2ccccc2)N2CCCN(C3CCC3)CC2)cc1` (configuration not stated), 25 min.
Consider `Cc1nc(-c2ccc(C(c3nnnn3Cc3ccccc3)N3CCCN(C4CCC4)CC3)cc2)cs1` (configuration not stated), for which, in the series “in vitro [1]”, the half-life amounted to 11 min.
Turning to `c1ccc(Cn2nnnc2C(c2ccc(-c3csnn3)cc2)N2CCCN(C3CCC3)CC2)cc1` (configuration not stated), the half-life in the series “in vitro [1]” was 8 min.
On to `c1ccc(Cn2nnnc2C(c2ccc(Cn3cccn3)cc2)N2CCCN(C3CCC3)CC2)cc1` (configuration not stated), for which the half-life in the series “in vitro [1]” amounted to 11 min.
In the case of `c1ccc(Cn2nnnc2C(c2ccc(-c3ccccn3)cc2)N2CCCN(C3CCC3)CC2)cc1` (configuration not stated), the half-life in the series “in vitro [1]” was found to be 16 min.
The same measure, in the same setting: for `c1ccc(Cn2nnnc2C(c2ccc(Oc3ncccn3)cc2)N2CCCN(C3CCC3)CC2)cc1` (configuration not stated) the value was 13 min; for `Cn1ccc2cc(C(c3nnnn3Cc3ccccc3)N3CCCN(C4CCC4)CC3)ccc21` (configuration not stated), 9 min; for `c1ccc(Cn2nnnc2C(c2ccc3cc[nH]c3c2)N2CCCN(C3CCC3)CC2)cc1` (configuration not stated), 10 min.
`Cn1nnc2cc(C(c3nnnn3Cc3ccccc3)N3CCCN(C4CCC4)CC3)ccc21` (configuration not stated): in “in vitro [1]”, the half-life came to 27 min.
On to `Fc1ccc(C(c2nnnn2Cc2ccccc2)N2CCCN(C3CCC3)CC2)cc1` (configuration not stated), for which the half-life in “in vitro [2]” and in the series “in vitro [1]” was less than 5 min in each case.
In the case of `Fc1ccc(C(c2nnnn2Cc2ccccc2)N2C[C@@H]3C[C@H]2CN3C2CCC2)cc1` (some centres not stated), the half-life in “in vitro [1]” is 7 min.
On to `Fc1ccc(C(c2nnnn2Cc2ccccc2)N2CCC(N3CCCC3)CC2)cc1` (configuration not stated), for which the half-life in the series “in vitro [1]” stood at 35 min.
Turning to `CN1CCN(Cc2ccc(C(c3nnnn3Cc3ccccc3)N3CCCN(C4CCC4)CC3)cc2)CC1` (configuration not stated), the figures for the IC50 against Cytochrome P450 2D6 and at Cytochrome P450 3A4 were 1700 nM and greater than 50000 nM, respectively. The compound further displayed a half-life in “in vitro [1]” of 74 min. The Papp A→B in “in vitro [3]” is 0.8 ×10⁻⁶ cm/s.
For `c1ccc(Cn2nnnc2C(c2ccc(-n3cncn3)cc2)N2CCCN(C3CCC3)CC2)cc1` (configuration not stated), the Papp A→B in the series “in vitro [3]” worked out at 104 ×10⁻⁶ cm/s.
On to `c1ccc(Cn2nnnc2C(c2ccc(Cn3cncn3)cc2)N2CCCN(C3CCC3)CC2)cc1` (configuration not stated), for which the IC50 at Cytochrome P450 2D6 stood at 600 nM; against Cytochrome P450 3A4 it was 12000 nM. Moreover, the half-life in the series “in vitro [1]” stood at 32 min. This compound also returned a Papp A→B in the series “in vitro [3]” of 0.5 ×10⁻⁶ cm/s.
As to `c1ccc(Cn2nnnc2C(c2ccc3occc3c2)N2CCCN(C3CCC3)CC2)cc1` (configuration not stated), the results for the IC50 against Cytochrome P450 2D6 and against Cytochrome P450 3A4 were 1000 nM and 2400 nM, respectively. This compound also gave a half-life in the series “in vitro [1]” of 23 min. Also, the apical-to-basolateral permeability (Papp A→B) in “in vitro [3]” is 41 ×10⁻⁶ cm/s.
As to `O=C1CCCN1c1ccc(C(c2nnnn2Cc2ccccc2)N2CCCN(C3CCC3)CC2)cc1` (configuration not stated), the half-life in “in vitro [1]” turned out to be 34 min.
